Experimental data as given in US12240870B2, “Sequencing method for CAR T cell therapy” (Purdue Research Foundation, priority 2018, dated 2025).

Experiments:
[1] = EC17 dose finding and CRS assessment in tumor-free mice; format: in vivo, NSG mice
Excerpt: Panel A: Schematic diagram to show dose scheduling of CAR-T cells (˜10 million “clinical facsimile”) plus EC17 dosed 3 different ways in NSG mice without or with pre-established MDA-MB-231 xenografts. Tumor-free mice received EC17 SIW 500 nmol/kg (2 doses on days 2 and 10). Tumor-bearing mice received EC17 as follows: EC17 SIW 500 nmol/kg (5 doses on days 2, 10, 17, 24, and 31), EC17 M/Th/M_Escalation-1 (repeats of 5/50/500 nmol/kg on Monday/Thursday/Monday followed by 1-week break, i,e. on days 2, 6, 10, 17, 20, 24, and 31), or EC17 M/Th/M_Escalation-2 (repeats of 5/100/1000 nmol/kg on Monday/Thursday/Monday followed by 1-week break, i.e. days 2, 6, 10, 17, 20, 24, and 31). Panel B: Systemic levels of human IFNγ on a log 2 scale detected in mouse plasma on days 11 and 12 after CAR-T cell injection in tumor-bearing versus tumor-free mice (i.e., ˜20 and 42 hours after the previous EC17 dose in all treated cohorts). Panel C: Circulating CAR-T cells in mouse blood identified as human CD3ε+ EGFRt+ events by flow cytometry and enumerated per 100 μL of whole blood. Panel D: Measurements of change in body weight and tumor volume in tumor-bearing mice that received CAR-T cells only or CAR-T cells plus EC17 dosed 3 different ways (dashed lines indicated each EC17 dose). n=5 mice per group. All data represent mean±s.e.m. * p<0.05 by one-way ANOVA test. […]

MDA-MB-231 xenografts = experiment: EC17 dose finding and CRS assessment in MDA-MB-231 tumor-bearing mice; format: in vivo; settings: for human IFNγ in mouse plasma, fold over tumor-bearing mice with CAR-T cells only: all EC17 treated tumor cohorts
Excerpt: Panel A: Schematic diagram to show dose scheduling of CAR-T cells (˜10 million “clinical facsimile”) plus EC17 dosed 3 different ways in NSG mice without or with pre-established MDA-MB-231 xenografts. Tumor-free mice received EC17 SIW 500 nmol/kg (2 doses on days 2 and 10). Tumor-bearing mice received EC17 as follows: EC17 SIW 500 nmol/kg (5 doses on days 2, 10, 17, 24, and 31), EC17 M/Th/M_Escalation-1 (repeats of 5/50/500 nmol/kg on Monday/Thursday/Monday followed by 1-week break, i,e. on days 2, 6, 10, 17, 20, 24, and 31), or EC17 M/Th/M_Escalation-2 (repeats of 5/100/1000 nmol/kg on Monday/Thursday/Monday followed by 1-week break, i.e. days 2, 6, 10, 17, 20, 24, and 31). Panel B: Systemic levels of human IFNγ on a log 2 scale detected in mouse plasma on days 11 and 12 after CAR-T cell injection in tumor-bearing versus tumor-free mice (i.e., ˜20 and 42 hours after the previous EC17 dose in all treated cohorts). Panel C: Circulating CAR-T cells in mouse blood identified as human CD3ε+ EGFRt+ events by flow cytometry and enumerated per 100 μL of whole blood. Panel D: Measurements of change in body weight and tumor volume in tumor-bearing mice that received CAR-T cells only or CAR-T cells plus EC17 dosed 3 different ways (dashed lines indicated each EC17 dose). n=5 mice per group. All data represent mean±s.e.m. * p<0.05 by one-way ANOVA test.
All animal care and use were performed according to NIH guidelines and in compliance with protocols approved by the Purdue University Animal Use and Care Committee. Female 4 to 5-week-old NOD/SCID gamma (NSG™) mice (stock number: 005557) were purchased from The Jackson Laboratory (Bar Harbor, ME). Unless specifically indicated, all animals were maintained on a FA-deficient diet (TestDiet, St. Louis, MO) upon arrival and throughout the study. To establish subcutaneous xenografts, MDA-MB-231 and HOS-FRα were implanted in the right flank region at 2.5×10^6 and 1×10^6 cells per animal, respectively. For intravenous xenografts, THP1-FRβ cells were inoculated at 5×10^6 cells per animal. Subcutaneous tumors were measured 2-3 times per week with a caliper and calculated using the ellipsoidal formula (length×width^2)/2. […] All animal doses (CAR-T cells, EC17, sodium fluorescein) were given intravenously.
In a therapeutic setting, EC17 CAM can be given before or after CAR-T cell injection. As described herein, the first dose of EC17 was administered 2-3.5 days after CAR-T cells to allow for an observation period of human T cells in tumor-bearing mice. Two batches of unsorted E2-CAR-T cells (23% or 39% EGFRt+, 1:1 CD4/CD8) were used for in vivo studies. On the day of infusion for each experiment (day 0), frozen CAR-T cells were quickly thawed at 37° C., washed 2× with Dulbecco's 1×PBS (pH 7.4) and injected into the tail vein at desired EGFRt+ E2-CAR-T cell doses. In addition, a small aliquot of CAR-T cells was analyzed by flow cytometry for CD4 to CD8 ratio and differentiation status of CAR-T cells. On the first day of EC17 dose, tumor-bearing animals were randomly assigned into groups according to their tumor sizes or the same number of days post intravenous implantation (i.e., THP1-FRβ).
For MDA-MB-231 studies, mice received a high dose (˜10 million) of a “clinical facsimile” of E2-CAR-T cells (˜39% EGFRt+) with a low differentiation profile (FIG. 9). Two days later, 3 different treatment regimens of EC17 were started at an average tumor size of ˜293±39 mm^3 (FIG. 12). The EC17 dosing was given once-a-week (SIW) at 500 nmol/kg on Mondays, or as escalating doses of 5, 50 or 100, and 500 or 1000 nmol/kg (i.e., 5/50/500 or 5/100/1000) on Monday, Thursday, and Monday with a 6-day break in-between cycles. Control mice were left untreated (received CAR-T cells but no EC17). For comparison, a cohort of tumor-free littermates also received the same number of CAR-T cells without or with EC17 SIW at 500 nmol/kg. […]

Nc1nc2ncc(CNc3ccc(C(=O)N[C@@H](CCC(=O)NCCNC(=S)Nc4ccc(-c5c6ccc(=O)cc-6oc6cc(O)ccc56)c(C(=O)O)c4)C(=O)O)cc3)nc2c(=O)[nH]1 [EC17, FA-(γ)-ethylenediamine-FITC]
body weight loss ([1]; tumor-free mice, two weekly doses of EC17 at 500 nmol/kg): no CRS symptoms (grade 0 out of a 0-5 scale) or body weight loss was observed
human IFNγ in mouse plasma ([1]; tumor-free, CAR-T cells plus EC17, days 11 and 12): low levels of IFNγ were detected
cures (MDA-MB-231 xenografts; EC17-treated cohorts (SIW, Escalation-1, Escalation-2)): 100%
body weight loss (MDA-MB-231 xenografts; EC17 Escalation-2 regimen 5/100/1000 nmol/kg M/Th/M): persistent body weight loss
onset of CRS and body weight loss (MDA-MB-231 xenografts; EC17 SIW at 500 nmol/kg): earliest onset of CRS and body weight loss
human IFNγ in mouse plasma, fold over tumor-bearing mice with CAR-T cells only (MDA-MB-231 xenografts; day 11 (~20 hours after previous EC17 dose), ~10 million CAR-T): ~30 ×
human IFNγ in mouse plasma, fold over tumor-bearing mice with CAR-T cells only (MDA-MB-231 xenografts; day 12 (~42 hours after previous EC17 dose), ~10 million CAR-T): ~10 ×
body weight loss (MDA-MB-231 xenografts; tumor-bearing cohorts, continued EC17 dosing independent of the regimen): significant body weight losses
CRS grade (MDA-MB-231 xenografts; tumor-bearing cohorts, continued EC17 dosing independent of the regimen, ~10 million CAR-T): 2-3
